ChEMBL document CHEMBL5113508, “Targeting Human CD22/Siglec-2 with Dimeric Sialosides as Novel Oligosaccharide Mimetics” (J Med Chem, 2022)

How the values were obtained:
[1] = target: B-cell receptor CD22 (Homo sapiens) (UniProt P20273); assay: (§1) Inhibition of CD22 (unknown origin) in human Daudi cells assessed as relative inhibitory potency in presence of biotinylated dimeric 2-(78-biotinoylamino-1,4,7,10,13,16-hexaoxa-octadecyl)-1,4-bis(2-aza-l-oxo-8-(sodium(5-acetamido-3,5,9-trideoxy-9-(4-phenylbenzamido)-D-glycero-a-D-galacto-non-2-ulopyranosyloxyonate))-5-thia-octyl) benzene preincubated for 15 mins followed by probe addition incubated for 20 mins by flow cytometric analysis relative to 1,4-Bis-(2-aza-1-oxo-8-(sodium-(5-acetamido-3,5-dideoxy-D-glycero-alpha-D-galacto-non-2-ulopyranosyloxyonate))-5-thia-octyl)benzene; assay type: cell-based; conditions: time 35.0 min
[2] = target: B-cell receptor CD22 (Homo sapiens) (UniProt P20273); assay: Antagonist activity at CD22 in IgM stimulated human Daudi cells assessed as increase in calcium flux incubated for 10 mins by flow cytometric analysis; assay type: cell-based; conditions: dose 2-200 µM, DDE = dose-dependent effect
[3] = target: T1, B-cell receptor CD22 (Homo sapiens, UniProt P20273); assay: Inhibition hFc tagged CD22 incubated for 4 hrs by ELISA
T1 sequence (P20273 whole entry): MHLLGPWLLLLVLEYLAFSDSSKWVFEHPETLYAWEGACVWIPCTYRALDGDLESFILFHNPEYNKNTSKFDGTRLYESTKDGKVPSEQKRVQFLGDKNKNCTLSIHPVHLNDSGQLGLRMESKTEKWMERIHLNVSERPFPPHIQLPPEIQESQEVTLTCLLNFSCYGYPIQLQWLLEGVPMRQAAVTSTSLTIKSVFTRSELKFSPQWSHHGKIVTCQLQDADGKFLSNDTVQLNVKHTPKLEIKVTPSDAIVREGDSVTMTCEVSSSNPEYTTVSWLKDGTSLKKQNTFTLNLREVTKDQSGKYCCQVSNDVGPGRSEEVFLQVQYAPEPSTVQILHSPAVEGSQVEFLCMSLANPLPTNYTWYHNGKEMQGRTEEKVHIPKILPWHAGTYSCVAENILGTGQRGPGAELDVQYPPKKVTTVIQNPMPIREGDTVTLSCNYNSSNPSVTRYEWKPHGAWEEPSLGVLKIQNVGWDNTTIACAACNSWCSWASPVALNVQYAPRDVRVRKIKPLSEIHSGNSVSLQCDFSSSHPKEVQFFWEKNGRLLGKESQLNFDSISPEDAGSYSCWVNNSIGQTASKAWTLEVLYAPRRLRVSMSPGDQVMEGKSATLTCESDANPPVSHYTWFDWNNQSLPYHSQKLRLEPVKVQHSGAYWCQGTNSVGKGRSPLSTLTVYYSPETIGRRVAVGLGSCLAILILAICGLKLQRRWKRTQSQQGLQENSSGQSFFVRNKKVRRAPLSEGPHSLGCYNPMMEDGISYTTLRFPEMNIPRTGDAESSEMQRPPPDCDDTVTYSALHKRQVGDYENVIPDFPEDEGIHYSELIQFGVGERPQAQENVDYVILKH

[4] = target: T1, B-cell receptor CD22; assay: Inhibition of CD22 in human Daudi cells preincubated for 15 mins followed by biotinylated dimeric 2-(78-biotinoylamino-1,4,7,10,13,16-hexaoxa-octadecyl)-1,4-bis(2-aza-l-oxo-8-(sodium(5-acetamido-3,5,9-trideoxy-9-(4-phenylbenzamido)-D-glycero-a-D-galacto-non-2-ulopyranosyloxyonate))-5-thia-octyl) benzene probe addition incubated for 20 mins by flow cytometric analysis; assay type: cell-based
[5] = target: B-cell receptor CD22 (Homo sapiens) (UniProt P20273); assay: Inhibition of hFc tagged CD22 (unknown origin) assessed as relative inhibitory potency incubated for 4 hrs by ELISA relative to 1,4-Bis-(2-aza-1-oxo-8-(sodium-(5-acetamido-3,5-dideoxy-D-glycero-alpha-D-galacto-non-2-ulopyranosyloxyonate))-5-thia-octyl)benzene
[6] = target: B-cell receptor CD22 (Homo sapiens) (UniProt P20273); assay: Inhibition of to hFc tagged CD22 (unknown origin) assessed as relative inhibitory potency incubated for 4 hrs by ELISA relative to 1,4-bis-(2-Aza-1-oxo-8-(sodium(5-acetamido-3,5,9-trideoxy-9-(4-phenylbenzamido)-D-glycero-alpha-D-galacto-non-2-ulopyranosyloxyonate))-5-thia-octyl)benzene
[7] = target: B-cell receptor CD22 (Homo sapiens) (UniProt P20273); assay: as §1, with “CD22” for “CD22 (unknown origin)”, “1,4-bis-(2-Aza-1-oxo-8-(sodium(5-acetamido-3,5,9-trideoxy-9-(4-phenylbenzamido)-D-glycero-alpha-D-galacto-non-2-ulopyranosyloxyonate))-5-thia-octyl)benzene” for “1,4-Bis-(2-aza-1-oxo-8-(sodium-(5-acetamido-3,5-dideoxy-D-glycero-alpha-D-galacto-non-2-ulopyranosyloxyonate))-5-thia-octyl)benzene”; assay type: cell-based; conditions: time 35.0 min

SMILES | fold change (FC) [1] | Activity [2] | IC50 [3] | IC50 [4] | fold change (FC) [5] | fold change (FC) [6] | fold change (FC) [7]
CC(=O)N[C@H]1[C@H]([C@H](O)[C@H](O)CNC(=O)c2ccc(-c3ccccc3)cc2)O[C@@](OCCCSCCNC(=O)c2ccc(C(=O)NCCSCCCO[C@]3(C(=O)O)C[C@H](O)[C@@H](NC(C)=O)[C@H]([C@H](O)[C@H](O)CNC(=O)c4ccc(-c5ccccc5)cc4)O3)cc2)(C(=O)O)C[C@@H]1O | 2940 | Dde | 0.41 nM | 2200 nM | 100 | – | –
CC(=O)N[C@H]1[C@H]([C@H](O)[C@H](O)CNC(=O)c2ccc(-c3ccccc3)cc2)O[C@@](OCCCSCCNC(=O)CCCCC(=O)NCCSCCCO[C@]2(C(=O)O)C[C@H](O)[C@@H](NC(C)=O)[C@H]([C@H](O)[C@H](O)CNC(=O)c3ccc(-c4ccccc4)cc3)O2)(C(=O)O)C[C@@H]1O | – | – | – | 24000 nM | – | 0.77 | 0.073
CC(=O)N[C@H]1[C@H]([C@H](O)[C@H](O)CO)O[C@@](OCCCSCCNC(=O)c2ccc(C(=O)NCCSCCCO[C@]3(C(=O)O)C[C@H](O)[C@@H](NC(C)=O)[C@H]([C@H](O)[C@H](O)CNC(=O)c4ccc(-c5ccccc5)cc4)O3)cc2)(C(=O)O)C[C@@H]1O | 135 | Dde | 0.39 nM | – | 105 | – | –
CC(=O)N[C@H]1[C@H]([C@H](O)[C@H](O)CNC(=O)c2ccc(-c3ccccc3)cc2)O[C@@](OCCCSCCNC(=O)c2ccccc2)(C(=O)O)C[C@@H]1O | – | – | 0.32 nM | – | 128 | – | –
